Assay results: US10668048B2, “Compounds for inhibiting bacterial growth via phosphatidylglycerol binding” (Wichita State University, priority 2016, dated 2020)

Columns and labels:
[1] = Liptin-PG binding in solution (ITC and/or 1H NMR titration); conditions: for binding constant for PG (Ka): in DMF solution, prior research
Procedure: The lipid binding ability of liptins 1-3 (FIG. 2A) have been investigated in solution using isothermal titration calorimetry (ITC) and/or ^1H NMR. Stoichiometry of binding was accomplished with Job plots using ^1H NMR. […] The use of organic solvents allowed the determination of binding motif using ^1H NMR.
Liptins 1b, 1e, 2c, 2d, 3a, 3c in DMF/5% CHCl3; 3e in 50% DMSO, 45% CHCl3, 5% CH3OH.
Liptins 1h and 1i 40% DMSO, 60% CHCl3, 3f in 20% DMSO, 80% CHCl3.

[2] = Inorganic phosphate anion binding in DMF solution
Source text: Liptins 2a-2d (FIG. 2A) have been prepared and characterized, but not published. However, example syntheses of several precursors required for the preparation of liptins 2a-2d, via precursors 7-8, utilizing soluble copper catalyst developed in our laboratory to couple the two aromatic rings and to elaborate the ring structure is based upon our previous experience, as is our methodology to efficiently ureidoalkylate the bis-phenol intermediates (FIG. 5). […] In contrast, inorganic phosphate anion bound more tightly to 2c (Ka=10^3 M^−1), indicating the anion binding unit with […] linking the two phenolic oxygens was a complementary fit for phosphate anion. By adding two additional methylene groups to the bridge linking the two rings [i.e., now (CH2)5, 2d], the size of the pocket better accommodates the PG head group, leading to increased […] with a Ka≈500 M^−1 in DMF. To further increase binding affinity, we changed the 3-hydroxypropane para-substituent into a 2,3-propane diol para-substituent (seen in 8 prepared from 7, FIG. 5). This increased the number of possible interactions between the liptin and the PG glycerol hydroxyls and reduced possible conformational constraints in the binding pocket when only two hydroxyl groups are present. […]

[3] = ITC, DMF/5% CHCl3, 1:1 binding stoichiometry

Compound	binding constant for PG (Ka) [1]	Ka [1, 3] [M⁻¹]	other results
O=C(NCc1cc(CCCO)cc2c1OCCCCOc1c(cc(CCCO)cc1CNC(=O)Nc1ccccc1)CCC2)Nc1ccccc1 [Liptin 2a]	no significant binding	–	–
O=C(NCc1cc(CCCO)cc2c1OCCCOc1c(cc(CCCO)cc1CNC(=O)Nc1ccccc1)CCC2)Nc1ccccc1 [Liptin 2b]	no significant binding	–	–
O=C(NCc1cc(CCCO)cc2c1OCOc1c(cc(CCCO)cc1CNC(=O)Nc1ccccc1)CCC2)Nc1ccccc1 [Liptin 2c]	–	420	Ka for inorganic phosphate anion [2]: 10^3 M^−1
O=C(NCCOCc1ccccc1)Nc1ccccc1-c1c2nc(c(-c3ccccc3NC(=O)NCCOCc3ccccc3)c3ccc([nH]3)c(-c3ccccc3NC(=O)NCCOCc3ccccc3)c3nc(c(-c4ccccc4NC(=O)NCCOCc4ccccc4)c4ccc1[nH]4)C=C3)C=C2 [Liptin 3a]	–	2100	–
CCOCCOCCOCCNC(=O)Nc1ccccc1-c1c2nc(c(-c3ccccc3NC(=O)NCCOCCOCCOCC)c3ccc([nH]3)c(-c3ccccc3NC(=O)NCCOCCOCCOCC)c3nc(c(-c4ccccc4NC(=O)NCCOCCOCCOCC)c4ccc1[nH]4)C=C3)C=C2 [Liptin 3c]	–	3700	–
O=C(CNCc1ccccc1)Nc1ccccc1-c1c2nc(c(-c3ccccc3NC(=O)CNCc3ccccc3)c3ccc([nH]3)c(-c3ccccc3NC(=O)CNCc3ccccc3)c3nc(c(-c4ccccc4NC(=O)CNCc4ccccc4)c4ccc1[nH]4)C=C3)C=C2 [Liptin 3f]	–	–	Ka ([1]; NMR titrations, 20% DMSO, 80% CHCl3): 2800 M⁻¹
